In experiment [1] the target is T1, Nuclear receptor ROR-gamma (Homo sapiens, UniProt P51449).
T1 sequence (P51449 whole entry): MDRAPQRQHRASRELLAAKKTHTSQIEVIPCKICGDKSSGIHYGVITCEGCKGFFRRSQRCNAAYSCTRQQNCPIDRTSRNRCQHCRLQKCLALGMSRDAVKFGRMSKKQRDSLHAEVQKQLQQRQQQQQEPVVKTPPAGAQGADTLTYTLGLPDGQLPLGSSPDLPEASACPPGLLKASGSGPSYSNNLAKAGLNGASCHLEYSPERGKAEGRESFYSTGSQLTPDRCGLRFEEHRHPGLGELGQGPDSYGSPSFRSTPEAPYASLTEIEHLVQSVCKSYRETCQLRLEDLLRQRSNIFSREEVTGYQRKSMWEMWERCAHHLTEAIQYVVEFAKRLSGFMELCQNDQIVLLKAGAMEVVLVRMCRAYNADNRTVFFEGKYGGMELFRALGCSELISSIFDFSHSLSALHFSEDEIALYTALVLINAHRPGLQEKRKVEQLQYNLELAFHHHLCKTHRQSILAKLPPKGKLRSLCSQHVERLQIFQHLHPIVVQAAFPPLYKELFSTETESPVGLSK
The experiment can be described thus: Agonist activity at europium-labeled human RORgammat LBD assessed as induction of XL665-labeled co-activator SRC1 recruitment incubated for 1 hr by dual FRET assay.

Experiment [2] concerns the target T2, Nuclear receptor ROR-gamma (Homo sapiens) (UniProt P51449).
T2 sequence (whole entry): T1 sequence (P51449 whole entry)
The experiment can be described thus: Inverse agonist activity at europium-labeled human RORgammat LBD assessed as inhibition of XL665-labeled co-activator SRC1 recruitment incubated for 1 hr by dual FRET assay relative to control. The conditions noted are these: concentration not given here.

Experiment [3] concerns the target T1, Nuclear receptor ROR-gamma. The experiment can be described thus: Inverse agonist activity at europium-labeled human RORgammat LBD assessed as inhibition of XL665-labeled co-activator SRC1 recruitment incubated for 1 hr by dual FRET assay.
Experiment [4] has as its target T3, Nuclear receptor ROR-gamma (Mus musculus) (UniProt P51450).
T3 sequence (whole entry): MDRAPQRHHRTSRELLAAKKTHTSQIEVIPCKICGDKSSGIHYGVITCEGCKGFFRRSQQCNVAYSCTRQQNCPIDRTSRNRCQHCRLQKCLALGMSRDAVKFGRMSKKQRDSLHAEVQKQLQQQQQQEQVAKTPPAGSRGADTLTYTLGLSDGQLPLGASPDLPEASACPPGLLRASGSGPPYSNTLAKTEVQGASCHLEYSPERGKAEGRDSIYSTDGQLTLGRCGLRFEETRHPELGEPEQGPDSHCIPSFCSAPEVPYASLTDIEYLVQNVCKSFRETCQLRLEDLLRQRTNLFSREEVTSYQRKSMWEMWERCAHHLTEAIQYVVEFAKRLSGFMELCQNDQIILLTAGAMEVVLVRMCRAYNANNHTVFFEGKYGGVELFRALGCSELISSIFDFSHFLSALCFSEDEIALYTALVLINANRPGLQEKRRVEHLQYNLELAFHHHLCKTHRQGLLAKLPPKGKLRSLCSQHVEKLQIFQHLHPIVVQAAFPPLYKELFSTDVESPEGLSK
As to the kind of experiment: Agonist activity at RORgammat in C57 mouse CD4+ T cells assessed as induction of Th17 cells differentiation by measuring increase in IL17 production measured after 4 days by flow cytometry analysis relative to control. It is filed as cell-based. The settings on record: CD4+ve Th, filed as agonist, time 4.0 day.

In experiment [5] the target is T1, Nuclear receptor ROR-gamma. The experiment can be described thus: Agonist activity at human RORgammat LBD expressed in HEK293T cells incubated for 16 to 20 hrs by Gal4-luciferase reporter gene assay. The experiment is classed as cell-based. In general terms: In a reporter assay the amount or activity of a reporter protein is the signal.

The values below come from ChEMBL document CHEMBL4825693, “Discovery of novel N-sulfonamide-tetrahydroisoquinolines as potent retinoic acid receptor-related orphan receptor γt agonists” (Eur J Med Chem, 2021).

A word on the EC50: it is the concentration that produces a half-maximal response. The term inhibition denotes the share of the control response that was lost under treatment. For orientation: IC50 means the point on the concentration scale where inhibition reaches its midpoint.

The structures appear in SMILES notation.

On to `CC(=O)N1CCN(c2ccc3c(c2)CCN(S(=O)(=O)N(C)Cc2ccc(F)cc2)C3)CC1`, for which, in experiment [1], the EC50 is 1020 nM. On the same count and under the same terms, with `CC(=O)N1CCN(c2ccc3c(c2)CCN(S(=O)(=O)N(C)Cc2cc(F)ccc2F)C3)CC1` the figure was 148 nM; with `CC(=O)N1CCN(c2ccc3c(c2)CCN(S(=O)(=O)N(C)Cc2ccccc2)C3)CC1`, 560 nM; with `CC(=O)N1CCN(c2ccc3c(c2)CCN(S(=O)(=O)N(C)Cc2ccccc2F)C3)CC1`, 358 nM. `CC(=O)N1CCN(c2ccc3c(c2)CCN(S(=O)(=O)N(C)Cc2ccc(C(F)(F)F)cc2)C3)CC1`: in experiment [2], the inhibition worked out at 25.8%. Also, in experiment [3], the EC50 was found to be 1980 nM. Regarding `CC(=O)N1CCN(c2ccc3c(c2)CCN(S(=O)(=O)N(C)Cc2cccc(C)c2)C3)CC1`, in experiment [1], the EC50 was 215 nM. For the compound `CC(=O)N1CCN(c2ccc3c(c2)CCN(S(=O)(=O)N(C)Cc2ccccn2)C3)CC1`, the EC50 in experiment [1] turned out to be 12300 nM.

In the case of `CC(=O)N1CCN(c2ccc3c(c2)CCN(S(=O)(=O)N(C)Cc2c(F)cccc2Cl)C3)[C@H](C)C1`, the half-maximal effective concentration (EC50) in experiment [1] was found to be 23 nM.

Consider `CC(=O)N1CCN(c2ccc3c(c2)CCCN3S(=O)(=O)N(C)Cc2ccccc2Cl)CC1`, for which, in experiment [3], the IC50 is 167 nM. With `CC(=O)N1CCN(c2ccc3c(c2)CCN(S(=O)(=O)N(C)Cc2ccccc2Cl)C3)CC1`, the EC50 in experiment [1] turned out to be 982 nM; in experiment [5], 740 nM. Besides, the max activation in experiment [4] was 93%. Regarding `CC(=O)N1CCN(c2ccc3c(c2)CCN(S(=O)(=O)N(C)Cc2cccc(Cl)c2)C3)CC1`, the EC50 in experiment [1] was 138 nM. For the compound `CC(=O)N1CCN(c2ccc3c(c2)CCN(S(=O)(=O)N(C)CCc2ccccc2)C3)CC1`, in experiment [1], the half-maximal effective concentration (EC50) worked out at 2230 nM. Consider `CC(=O)N1CCN(c2ccc3c(c2)CCN(S(=O)(=O)N(C)c2nccc(C(F)(F)F)n2)C3)CC1`, for which the EC50 in experiment [1] is 6240 nM. On the same count and under the same terms, with `CC(=O)N1CCN(c2ccc3c(c2)CCN(S(=O)(=O)N(C)Cc2ccccc2C)C3)CC1` the figure was 221 nM; with `CC(=O)N1CCN(c2ccc3c(c2)CCN(S(=O)(=O)N(C)CCCc2ccccc2)C3)CC1`, 570 nM. Still for that read-out and setting: then `CC(=O)N1CCN(c2ccc3c(c2)CCN(S(=O)(=O)N(C)Cc2cccc(F)c2)C3)CC1`, with 546 nM. As for `CC(=O)N1CCN(c2ccc3c(c2)CCN(S(=O)(=O)N(C)Cc2c(F)cccc2Cl)C3)CC1`, the EC50 was 21 nM in experiment [1] and 190 nM in experiment [5]. In experiment [4], the max activation was found to be 167%.
